The values that follow come from patent US11873298B2, “Compounds and uses thereof” (JANSSEN PHARMACEUTICA NV, priority 2017, dated 2024).

Values joined by “and” are separate entries in the source; they are usually repeats but may differ in a detail not shown here. Identical values can stand only once. Some results are limits rather than exact numbers.

What all share (assay type): cell-based
In one test the target is T1, Ole1 (Saccharomyces cerevisiae, UniProt P21147).
T1 construct: expressed in transfected cells; host or cells: S. cerevisiae ole1Δ strain (W303 pdr1Δ pdr3Δ background), plasmid pRS316 with TDH3 promoter and CYC1 terminator
T1 sequence (P21147 1-510): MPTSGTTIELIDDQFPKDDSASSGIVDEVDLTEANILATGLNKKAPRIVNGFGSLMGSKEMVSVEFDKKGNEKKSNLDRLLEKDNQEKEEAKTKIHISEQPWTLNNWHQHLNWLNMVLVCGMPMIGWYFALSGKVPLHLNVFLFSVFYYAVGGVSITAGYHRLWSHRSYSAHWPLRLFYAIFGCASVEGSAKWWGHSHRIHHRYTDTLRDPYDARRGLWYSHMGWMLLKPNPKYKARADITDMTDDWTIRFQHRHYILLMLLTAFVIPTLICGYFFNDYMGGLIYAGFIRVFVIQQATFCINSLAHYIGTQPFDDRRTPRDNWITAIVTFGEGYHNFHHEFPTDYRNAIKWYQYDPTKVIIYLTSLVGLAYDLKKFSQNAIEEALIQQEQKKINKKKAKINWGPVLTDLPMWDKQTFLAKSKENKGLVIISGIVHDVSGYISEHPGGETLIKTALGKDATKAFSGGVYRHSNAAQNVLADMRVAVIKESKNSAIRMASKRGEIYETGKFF
The test is described as follows: Growth inhibition of yeast strain expressing Ole1 as sole desaturase. Particulars: yeast strain expressing Ole1 as sole desaturase. The procedure, abridged: (§1)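 Plasmid-complemented ole1Δ yeast, drug-pump deleted (pdr1Δ pdr3Δ), depend solely on the introduced Ole1, SCD1 or SCD5 desaturase. Compounds are added from DMSO to cells in uracil-free galactose medium, 2× density 0.02, and OD600 is read after 24 h or 40 h respectively.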

A further test deals with T2, SCD1 (Homo sapiens, UniProt O00767).
T2 construct: host or cells: S. cerevisiae ole1Δ strain (W303 pdr1Δ pdr3Δ background), plasmid pRS316 with TDH3 promoter and CYC1 terminator
T2 sequence (O00767 1-359): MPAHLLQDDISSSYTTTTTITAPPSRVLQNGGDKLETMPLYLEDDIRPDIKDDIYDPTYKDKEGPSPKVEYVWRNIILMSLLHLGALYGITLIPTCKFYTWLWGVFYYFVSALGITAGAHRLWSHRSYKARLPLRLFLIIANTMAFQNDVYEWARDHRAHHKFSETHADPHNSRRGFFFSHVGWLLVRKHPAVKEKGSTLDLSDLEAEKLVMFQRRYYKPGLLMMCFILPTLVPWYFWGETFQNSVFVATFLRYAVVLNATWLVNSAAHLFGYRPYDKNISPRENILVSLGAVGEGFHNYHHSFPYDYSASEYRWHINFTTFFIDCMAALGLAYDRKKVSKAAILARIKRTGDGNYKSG
Put plainly: Growth inhibition of humanized yeast strain expressing SCD1 as sole desaturase. Particulars: humanized yeast strain expressing SCD1. The method in brief:
as §1

Another test deals with T3, SCD5 (Homo sapiens, UniProt Q86SK9).
T3 construct: host or cells: S. cerevisiae ole1Δ strain (W303 pdr1Δ pdr3Δ background), plasmid pRS316 with TDH3 promoter and CYC1 terminator
T3 sequence (Q86SK9 1-330): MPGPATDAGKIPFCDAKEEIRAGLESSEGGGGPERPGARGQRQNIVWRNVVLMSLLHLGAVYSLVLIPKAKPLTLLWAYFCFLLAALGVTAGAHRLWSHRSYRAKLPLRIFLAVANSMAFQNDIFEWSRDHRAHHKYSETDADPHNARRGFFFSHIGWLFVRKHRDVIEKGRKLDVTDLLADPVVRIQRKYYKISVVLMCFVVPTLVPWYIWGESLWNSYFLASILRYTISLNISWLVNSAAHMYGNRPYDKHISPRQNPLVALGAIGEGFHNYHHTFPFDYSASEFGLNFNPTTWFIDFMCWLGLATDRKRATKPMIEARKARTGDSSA
The test is described as follows: Growth inhibition of humanized yeast strain expressing SCD5 as sole desaturase. Particulars: humanized yeast strain expressing SCD5. The procedure, abridged:
as §1

In general, IC50 refers to the concentration that gives 50% inhibition. A higher IC50 goes with a need for much substance. Turning to `Cc1nn(C(C)C)c2cc(-c3noc(C4CCN(C(=O)CNC(=O)c5ccccc5)CC4)n3)ccc12` [Compound 281], on Ole1, the IC50 was 33.8 µM and > 45 µM; the “OLE1 % Max Inhibition” value was 60.23% and 32.09%. Also, on SCD1, the IC50 was ≥ 45 µM; the “SCD1 % Max Inhibition” value is 84.97% and 68.90%. On SCD5, the IC50 was > 45 µM; the “SCD5 % Max Inhibition” value was 18.03% and 12.39%.
As for `COc1ccc(-c2noc(C3CCN(C(=O)CNCc4ccccc4)CC3)n2)cc1OC` [Compound 30], on Ole1, the IC50 is > 45 µM and the “OLE1 % Max Inhibition” value was 100.46%. Further, at SCD1, the IC50 was > 45 µM and the “SCD1 % Max Inhibition” value amounted to 80.58%. On SCD5, the IC50 was > 45 µM and the “SCD5 % Max Inhibition” value is recorded as 74.17%.
For the compound `Cc1nn(C)c2cc(-c3noc(C4CCN(C(=O)c5ccccc5)CC4)n3)ccc12` [Compound 280], at Ole1, the IC50 is > 45 µM and the “OLE1 % Max Inhibition” value is on record as 17.18%. The “SCD1 % Max Inhibition” value on SCD1 worked out at 11.48%. On SCD5, the IC50 is > 45 µM and the “SCD5 % Max Inhibition” value is recorded as 8.86%.
In the case of `Cn1c(=O)n(C)c2cc(-c3noc(C4CCN(C(=O)CNC(=O)c5ccncc5)CC4)n3)ccc21` [Compound 238], at Ole1, the IC50 is > 45 µM and the “OLE1 % Max Inhibition” value came to 4.93%. Moreover, on SCD1, the IC50 is > 45 µM and the “SCD1 % Max Inhibition” value worked out at 70.06%. Also, on SCD5, the IC50 is 30 µM and the “SCD5 % Max Inhibition” value was 69.63%.
With `CCN1C(=O)CC(C)c2ccc(-c3noc(C4CCN(C(=O)CNC(=O)c5ccccc5)CC4)n3)cc21` (stereo not drawn) [Compound 298], on Ole1, the IC50 was > 45 µM and the “OLE1 % Max Inhibition” value is listed as 6.6%. In addition, on SCD1, the IC50 was > 45 µM and the “SCD1 % Max Inhibition” value is given as 92.3%. Moreover, on SCD5, the IC50 is > 45 µM and the “SCD5 % Max Inhibition” value stood at 21.3%.
As for `CC(C)c1cccc(C(=O)N2CCC(c3nc(-c4ccc5cnn(C)c5c4)no3)CC2)c1` [Compound 205], on Ole1, the IC50 is > 45 µM and the “OLE1 % Max Inhibition” value amounted to 94.02%. Also, on SCD1, the IC50 was > 45 µM and the “SCD1 % Max Inhibition” value stood at 31.70%. At SCD5, the IC50 is > 45 µM and the “SCD5 % Max Inhibition” value stood at 1.01%.
Take `O=C(C1CC(=O)N(c2ccccc2)C1)N1CCC(c2nc(-c3ccc4c(c3)COC4)no2)CC1` (stereo not drawn) [Compound 220]: at Ole1, the IC50 was > 45 µM and the “OLE1 % Max Inhibition” value is listed as 3.10%. Moreover, on SCD1, the IC50 was > 45 µM and the “SCD1 % Max Inhibition” value amounted to 87.27%. On SCD5, the IC50 was > 45 µM and the “SCD5 % Max Inhibition” value is 13.65%.
In the case of `CCN(Cc1nc(-c2ccc3c(c2)N(CC)C(=O)CO3)no1)C(=O)Cc1cccc2ccccc12` [Compound 494], on Ole1, the IC50 was > 45 µM and the “OLE1 % Max Inhibition” value came out at 92.28%. The “SCD1 % Max Inhibition” value at SCD1 came to 79.67%. On SCD5, the IC50 was > 45 µM and the “SCD5 % Max Inhibition” value stood at 73.76%.
As for `Cn1ncc2c1CN(c1noc(C3CCN(C(=O)C4CC(=O)N(c5ccccc5)C4)CC3)n1)CC2` (stereo not drawn) [Compound 243], at Ole1, the concentration for half-maximal inhibition (IC50) was > 45 µM and the “OLE1 % Max Inhibition” value came to 94.60%. In addition, at SCD1, the IC50 was > 45 µM and the “SCD1 % Max Inhibition” value is given as 94.50%. On SCD5, the IC50 was > 45 µM and the “SCD5 % Max Inhibition” value was found to be 72.11%.
As for `Cc1nn(C)c2cc(-c3noc(C4CCN(C(=O)COc5ccccc5)CC4)n3)ccc12` [Compound 266], on Ole1, the IC50 is > 45 µM and the “OLE1 % Max Inhibition” value turned out to be 7.17%. Besides, on SCD1, the “SCD1 % Max Inhibition” value is reported as 12.42%. Also, at SCD5, the IC50 is > 45 µM and the “SCD5 % Max Inhibition” value is recorded as 9.90%.
As for `Cc1nn(C)c2cc(-c3noc(C4CCN(C(=O)[C@H]5CC(=O)N(c6ccccc6)C5)CC4(F)F)n3)ccc12` (stereo partly drawn) [Compound 241], on Ole1, the IC50 was > 45 µM and the “OLE1 % Max Inhibition” value worked out at 6.15%. For the same compound, on SCD1, the 50% inhibitory concentration (IC50) is > 45 µM and the “SCD1 % Max Inhibition” value stood at 91.61%. Also, at SCD5, the IC50 is > 45 µM and the “SCD5 % Max Inhibition” value is recorded as 16.97%.
